“Also recorded” adds a separate entry of the source. Like-named read-outs stand apart in the source and are kept apart here.

We go through one substance from patent US20250114337A1, “METHODS FOR VASCULAR REGENERATION AND WOUND TREATMENT” (THE METHODIST HOSPITAL, priority 2022, published 2025).

The subject of one test is UDP-GlcNAc. As to the kind of experiment: LC-MS-based metabolomic analysis of fibroblasts undergoing transdifferentiation. Format: cell-based, human. The note with it: 30 ng/ml Poly I:C with induction medium, 0, 1, 3 days. The procedure:
(§1) Cellular O-GlcNAcylation is elevated during transdifferentiation. […] TLR3 activation increases DNA accessibility and facilitates transdifferentiation. Other forms of inflammatory activation also increase DNA accessibility (as with RIG1 activation). […] To determine if the increase in UDP-GlcNAc is associated with an increase in O-GlcNAcylation, cells were treated with PolyI:C or vehicle for 3 days, then the O-GlcNAcylated proteins in the nuclear (N), cytoplasmic (C), or whole-cell (W) lysates were enzymatically labeled with azido-modified galactose (GalNAz), which were further detected by click-it chemistry using a biotinylated alkyne and Western.
To profile the global metabolic changes during transdifferentiation, untargeted metabolomics with BJ human fibroblast cells undergoing transdifferentiation protocol was performed and treated with 30 ng/ml Poly I:C with the induction medium for 0, 1, and 3 days. Over 100 metabolites were identified from the LC-MS-based metabolomic analysis. […] UDP-GlcNAc is the substrate for O-GlcNAcylation and is the end-product of the hexosamine biosynthesis pathway (HBP).

Another test concerns H3.3 deposition. The test can be described thus: H3.3-SNAP tagging, quench-chase-pulse TMR-Star labeling. The class given is cell-based. The note with it: vs control. The text has this:
To identify the role of O-GlcNAcylation of histone variant h3.3 chaperone protein, HIRA, on transdifferentiation. The effects of O-GlcNAcylation on proteins that may be involved in the epigenetic regulation of transdifferentiation can be assessed. Nucleosome turnover is known to be tightly interrelated with DNA accessibility, and histone variant h3.3 is a hallmark of regulatory regions in the mammalian genome and is required to establish open chromatins. HIRA is the chaperone for h3.3, it forms a complex with other subunits, including ASF1. UBN, and CABIN, and is responsible for h3.3 deposition on the chromatin. OGT interacts with and O-GlcNAcylates HIRA, both of which are critical for the formation of the HIRA-h3.3 complex and h3.3 deposition and its dependent gene activation. […] The role of HIRA in transdifferentiation with fibroblasts that have HIRA knocked down or overexpressed can be determined. […] Thereafter, the de novo deposited SNAP-h3.3 will be pulse-labeled with the TMR-Star, which is a readily detectable and quantifiable red-fluorescent substrate. […]
To test whether innate immune activation enhances the H3.3 deposition in the chromatin, the H3.3-SNAP tagging system was generated where the newly synthesized H3.3 will be detected by fluorescent TMR-Star labeling with quench-chase-pulse strategy.

A further test has as its system BJ fibroblasts. To be noted: PolyI:C alone, without endothelial growth factors; cited from earlier work.
Another test deals with accessible chromatin. As to the kind of experiment: ATAC seq chromatin accessibility in fibroblasts. Format: cell-based. The text has this:
Chromatin accessibility mapping is a powerful approach to identify sites of open chromatin (i.e. to infer sites of active transcription). In ATAC-seq, a Tn5 transposase inserts sequencing adapters into accessible DNA (‘tagmentation’). […] In the right panel, exposure of the fibroblasts to polyIC increases the average length (KB) of open chromatin.
Identify the role of O-GlcNAcylation in DNA accessibility. […] However, it is unknown if this occurs during transdifferentiation of fibroblasts to iECs. […] To test if O-GlcNAcylation controls this process.

For the next test, the system named is HIRA-H3.3 complex. The test can be described thus: immunoprecipitation using HIRA antibody. Format: cell-based. To be noted: after Poly I:C treatment. The text has this: The histone variant h3.3 is a replacement for its canonical form of h3.1 and h3.2 in the nucleosome. Its deposition is usually associated with transcription activation and enhanced DNA accessibility. The complex that is responsible for h3.3 deposition is called HIRA complex which consists of HIRA. UBN, and cabin as the histone chaperone proteins. The HIRA O-GlcNAcylation is known to be critical for its function in H3.3 deposition. During the vascular recovery in the WT mice, the level of HIRA complex subunits, including ASFIA. HIRA. UBN, as well as the H3.3 deposition are increased (FIG. 22A). The HIRA-H3.3 pathway in the fibroblast progeny cells is activated, especially in the limbs recovering from ischemia 3- and 7-days post-surgery compared with the non-YFP+ cells (FIG. 22B). […] An in vitro system to test whether the HIRA-H3.3 pathway is activated during transdifferentiation was used.

The next test relates to O-GlcNAcylated proteins. As to the kind of experiment: Click-it O-GlcNAc enzymatic labeling and detection assay. Format: cell-based. To be noted: 3 days vs vehicle, nuclear, cytoplasmic, whole-cell lysates. The procedure: as §1
To determine if the increase in UDP-GlcNAc is associated with an increase in O-GlcNAcylation, cells were treated with Poly I:C or vehicle for 3 days, then the O-GlcNAcylated proteins in the nuclear (N), cytoplasmic (C), or whole-cell (W) lysates were enzymatically labeled with azido-modified galactose (GalNAz), which were further detected by click-it chemistry using a biotinylated alkyne and Western.

The subject of another test is MEFs. To be noted: Chanda et al. 2019; cited from earlier work.

“Polyinosinic:polycytidylic acid [PolyI:C]”: the values for the UDP-GlcNAc level entry with UDP-GlcNAc and in the test on UDP-GlcNAc (listed as Poly I:C) were “highly elevated; also recorded: up-regulated” and “consistently increases”, respectively. Also, the H3.3 deposition result in the test on H3.3 deposition is on record as “enhances”. In addition, the “transdifferentiation of fibroblasts to endothelial cells” value with BJ fibroblasts was “does not occur”. The “chromatin accessibility (open chromatin around TSS)” value in the test with accessible chromatin is on record as “more accessible chromatin regions”; in the test with accessible chromatin (listed as polyIC), “increases”. Also, the “HIRA interaction with UBN and H3.3” value with HIRA-H3.3 complex is listed as “enhanced”. Besides, the figures for the O-GlcNAcylation result with O-GlcNAcylated proteins and in the test with O-GlcNAcylated proteins (listed as Poly I:C) were “elevation primarily occurs in nuclear proteins; also recorded: augmentation” and “elevation”, respectively. Moreover, the DNA accessibility result with MEFs is “enhances”.
